These results are taken from US4176180A (priority 1977, dated 1979).

Where a name gives a salt, the structure may show the parent alone.

Data set [1] can be described thus: serum concentration of erythromycin two hours after ethyl-succinyl erythromycin. It is filed as in vivo, human (ill persons).
The conditions of data set [2]: human, in vivo, 2 h.
The test system of the next data set is Diplococcus pneumoniae. As to conditions: gram positive cocci; cited from earlier work.
For another data set, the system named is Str. pyogenes. The following applies: gram positive cocci; cited from earlier work.
In a further data set the test system is Str. non-groupable. As to conditions: gram positive cocci; cited from earlier work.
The test system of the next data set is Str. faecalis. As to conditions: gram positive cocci; cited from earlier work.
A further data set concerns Staph. aureus. As to conditions: gram positive cocci; cited from earlier work.
The subject of the next data set is Staph. epidermidis. The following applies: gram positive cocci; cited from earlier work.
The next data set has as its system Neisseria menigitidis. As to conditions: gram negative cocci; cited from earlier work.
For the next data set, the system named is Neisseria gonorrhoeae. The following applies: gram negative cocci; cited from earlier work.
In data set [3] the test system is Corynebacterium diphteriae. As to conditions: gram positive bacilli; cited from earlier work.
The test system of the next data set is Listeria monocytogenes. As to conditions: gram positive bacilli; cited from earlier work.
The subject of a further data set is Erysipelothrix insidiosa. As to conditions: gram positive bacilli; cited from earlier work.
A further data set concerns Plectridium tetani. As to conditions: gram positive bacilli; cited from earlier work.
For a further data set, the system named is Clostridium perfringens. As to conditions: gram positive bacilli; cited from earlier work.
The test system of the next data set is Haemophilus influenzae. The following applies: gram negative bacilli; cited from earlier work.
The test system of another data set is Bordetella pertussis. As to conditions: gram negative bacilli; cited from earlier work.
For a further data set, the system named is Pasteurella multocida. As to conditions: gram negative bacilli; cited from earlier work.
In another data set the test system is Brucella melitensis. As to conditions: gram negative bacilli; cited from earlier work.
In another data set the test system is Bacteroides fragilis. The following applies: gram negative bacilli; cited from earlier work.
A further data set deals with Mycoplasma pneumoniae. The following applies: mycoplasmae; cited from earlier work.
Another data set is described as follows: clinical. The following applies: human, in vivo.
The conditions of data set [4]: in some patients, after prolonged treatment; cited from earlier work.
[5] abbreviates: Serum concentration of erythromycine, Average.

As usually defined, the Cmax is the maximum level reached in the sampled fluid or tissue.

Turning to `CCOC(=O)CCC(=O)O[C@H]1[C@H](O[C@@H]2[C@@H](C)[C@H](O[C@H]3C[C@@](C)(OC)[C@@H](O)[C@H](C)O3)[C@@H](C)C(=O)O[C@H](CC)[C@@](C)(O)[C@H](O)[C@@H](C)C(=O)[C@H](C)C[C@@]2(C)O)O[C@H](C)C[C@@H]1N(C)C` [ES, ethyl-succinyl erythromycin], in data set [1] (two hours following administration), the “regularity of the serum concentrations obtained” value is “irregularity in the serum concentrations obtained”. In data set [1] (two hours following administration of 600 mg, sum over 9 persons), the “Serum concentration of erythromycin, Total” value was 15.36 µg/mL.

For the compound `CC[C@H]1OC(=O)[C@H](C)[C@@H](O[C@H]2C[C@@](C)(OC)[C@@H](O)[C@H](C)O2)[C@H](C)[C@@H](O[C@@H]2O[C@H](C)C[C@H](N(C)C)[C@H]2O)[C@](C)(O)C[C@@H](C)C(=O)[C@H](C)[C@@H](O)[C@]1(C)O` [E, erythromycin], the “Serum concentration of erythromycine, Average” value in data set [2] turned out to be 0.988 µg/mL. Moreover, the “MINIMUM INHIBITING CONCENTRATIONS” value in the data set on Diplococcus pneumoniae was 0.01-0.2 […] MILILITER OF MEDIUM; with Str. pyogenes, 0.02-0.2 […] MILILITER OF MEDIUM; in the data set with Str. non-groupable it was 0.02-3.1 […] MILILITER OF MEDIUM; in the data set with Str. faecalis, 0.6-3.1 […] MILILITER OF MEDIUM; with Staph. aureus, 0.01-1.6 […] MILILITER OF MEDIUM; with Staph. epidermidis it was 0.2-3.1 […] MILILITER OF MEDIUM. Besides, the “MINIMUM INHIBITING CONCENTRATIONS” value was 0.2-1.6 […] MILILITER OF MEDIUM with Neisseria menigitidis; 0.04-0.4 […] MILILITER OF MEDIUM with Neisseria gonorrhoeae; 0.2-3.1 […] MILILITER OF MEDIUM in [3]; 0.2 […] MILILITER OF MEDIUM in the data set on Listeria monocytogenes; 0.06 […] MILILITER OF MEDIUM with Erysipelothrix insidiosa; 0.2-0.6 […] MILILITER OF MEDIUM with Plectridium tetani. The “MINIMUM INHIBITING CONCENTRATIONS” value in the data set with Clostridium perfringens was 0.1-0.2 […] MILILITER OF MEDIUM; with Haemophilus influenzae, 0.4-3.1 […] MILILITER OF MEDIUM; with Bordetella pertussis it was 0.2 […] MILILITER OF MEDIUM; in the data set on Pasteurella multocida it was 0.8 […] MILILITER OF MEDIUM; in the data set on Brucella melitensis, 0.3 […] MILILITER OF MEDIUM; with Bacteroides fragilis it was 0.8-6.2 […] MILILITER OF MEDIUM. Further, the “MINIMUM INHIBITING CONCENTRATIONS” value in the data set on Mycoplasma pneumoniae was 0.004-0.016 […] MILILITER OF MEDIUM. In “clinical” (Maximum concentrations of erythromycin, Average m), this compound gave a Cmax of 0.996 µg/mL. Further, the concentration at 1 h in the data set “clinical” (setting [5]) was 0.321 µg/mL. The concentration at 1.5 h in the data set “clinical” (setting [5]) worked out at 0.61 µg/mL. In the data set “clinical” (setting [5]), this compound gave a concentration at 2 h of 0.988 µg/mL.

On to `CCC(=O)O[C@H]1[C@H](O[C@@H]2[C@@H](C)[C@H](O[C@H]3C[C@@](C)(OC)[C@@H](O)[C@H](C)O3)[C@@H](C)C(=O)O[C@H](CC)[C@@](C)(O)[C@H](O)[C@@H](C)C(=O)[C@H](C)C[C@@]2(C)O)O[C@H](C)C[C@@H]1N(C)C` [estolate, lauryl sulfate of the propionic ester of erythromycin], for which the hepatotoxicity entry in [4] is on record as “not inconsiderable hepatotoxicity”.
